In assay [1] the target is T1, glucosylceramide synthase (GCS) (Homo sapiens, UniProt Q16739).
T1 construct: gene UGCG; GCS overexpressed in HeLa GCS KO cells, lysate
T1 sequence (Q16739 1-394): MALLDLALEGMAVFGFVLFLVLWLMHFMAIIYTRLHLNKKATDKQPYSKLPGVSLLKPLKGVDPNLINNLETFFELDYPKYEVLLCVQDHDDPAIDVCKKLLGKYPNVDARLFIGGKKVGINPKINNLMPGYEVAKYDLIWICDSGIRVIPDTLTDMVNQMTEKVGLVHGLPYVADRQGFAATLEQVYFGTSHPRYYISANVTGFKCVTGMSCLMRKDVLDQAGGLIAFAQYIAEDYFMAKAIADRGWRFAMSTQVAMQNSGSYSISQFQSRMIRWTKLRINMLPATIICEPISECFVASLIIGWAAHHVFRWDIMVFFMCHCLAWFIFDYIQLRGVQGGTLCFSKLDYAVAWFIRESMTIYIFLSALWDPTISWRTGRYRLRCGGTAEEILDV
Kind of assay: XylCer formation in lysates of HeLa, GCS KO and GCS-reexpressing cells, LC-MS/MS. In kind it is cell-based. The source says:
formation in lysates of HeLa, GCS KO and GCS-reexpressing cells, LC-MS/MS on glucosylceramide synthase (GCS) | Expression of GCS in the GCS KO cells reinstalled their ability to produce […]

Assay [2] has as its target T2, glucocerebrosidase (GBA), recombinant human (rhGBA, Cerezyme) (Homo sapiens, UniProt P04062).
T2 construct: gene GBA1
T2 sequence (P04062 40-536): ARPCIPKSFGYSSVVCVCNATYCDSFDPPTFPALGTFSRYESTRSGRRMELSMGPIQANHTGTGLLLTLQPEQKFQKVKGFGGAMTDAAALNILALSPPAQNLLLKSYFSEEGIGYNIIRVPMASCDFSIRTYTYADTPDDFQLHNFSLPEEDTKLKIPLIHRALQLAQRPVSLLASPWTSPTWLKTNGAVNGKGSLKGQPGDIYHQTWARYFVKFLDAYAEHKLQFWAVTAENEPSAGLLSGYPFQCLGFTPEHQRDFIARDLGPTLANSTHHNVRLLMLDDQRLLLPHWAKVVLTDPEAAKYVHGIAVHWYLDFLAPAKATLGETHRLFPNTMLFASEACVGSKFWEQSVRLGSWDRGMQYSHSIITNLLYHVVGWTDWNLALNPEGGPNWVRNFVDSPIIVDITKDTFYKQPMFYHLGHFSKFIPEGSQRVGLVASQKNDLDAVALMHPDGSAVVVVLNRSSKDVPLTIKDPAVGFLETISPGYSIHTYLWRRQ
Put plainly: transxylosylation/transglucosylation acceptor, LC-MS/MS of products. The assay is classed as biochemical.

The target of another assay is T3, glucocerebrosidase (GBA) (Mus musculus, UniProt P17439).
T3 construct: gene Gba1; endogenous GBA in RAW264.7 cells
T3 sequence (P17439 20-515): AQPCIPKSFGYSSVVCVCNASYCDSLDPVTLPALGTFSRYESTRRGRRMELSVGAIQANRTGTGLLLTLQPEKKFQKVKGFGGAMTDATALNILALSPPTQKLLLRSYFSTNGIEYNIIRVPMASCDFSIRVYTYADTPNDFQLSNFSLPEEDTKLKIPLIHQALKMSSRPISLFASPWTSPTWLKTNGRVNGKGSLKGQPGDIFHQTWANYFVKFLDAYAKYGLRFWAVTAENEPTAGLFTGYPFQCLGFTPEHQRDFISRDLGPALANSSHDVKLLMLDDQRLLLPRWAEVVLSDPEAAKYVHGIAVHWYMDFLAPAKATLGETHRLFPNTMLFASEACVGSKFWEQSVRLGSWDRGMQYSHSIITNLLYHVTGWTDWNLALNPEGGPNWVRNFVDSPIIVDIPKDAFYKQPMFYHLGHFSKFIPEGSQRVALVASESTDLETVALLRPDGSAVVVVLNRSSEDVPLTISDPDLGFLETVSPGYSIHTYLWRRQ
Kind of assay: irreversible GBA inhibition in RAW264.[…] cells ([…]); xylosylated cholesterol by LC-MS/MS. The assay is classed as cell-based.

A further assay deals with T4, GBA3 (Homo sapiens, UniProt Q9H227).
T4 construct: GBA3 overexpressed in HEK293 cells, lysate
T4 sequence (Q9H227 1-469): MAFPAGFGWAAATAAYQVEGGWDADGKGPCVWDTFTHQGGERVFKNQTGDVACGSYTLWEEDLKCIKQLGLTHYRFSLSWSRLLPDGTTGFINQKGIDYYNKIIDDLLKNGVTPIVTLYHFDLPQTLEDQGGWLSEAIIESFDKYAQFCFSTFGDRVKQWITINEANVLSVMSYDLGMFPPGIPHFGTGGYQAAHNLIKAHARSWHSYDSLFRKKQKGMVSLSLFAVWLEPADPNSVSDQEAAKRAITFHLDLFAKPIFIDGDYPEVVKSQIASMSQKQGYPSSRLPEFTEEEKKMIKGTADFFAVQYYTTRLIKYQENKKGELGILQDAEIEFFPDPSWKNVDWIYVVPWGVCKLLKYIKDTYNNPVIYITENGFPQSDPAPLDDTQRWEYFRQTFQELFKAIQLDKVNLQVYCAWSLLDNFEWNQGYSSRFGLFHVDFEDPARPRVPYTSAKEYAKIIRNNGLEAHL
Put plainly: hydrolysis and transxylosylation in lysates of GBA3-overexpressing HEK293 cells. The assay is classed as cell-based.

Assay [3] concerns the target T2, glucocerebrosidase (GBA), recombinant human (rhGBA, Cerezyme). Kind of assay: fluorogenic 4-MU-β-Xyl ([…]) and 4-MU-β-Glc ([…]) hydrolysis after […] min preincubation. The assay is classed as biochemical.

For `O=c1ccn([C@@H]2O[C@H](COP(=O)(O)OP(=O)(O)O[C@H]3OC[C@@H](O)[C@H](O)[C@H]3O)[C@@H](O)[C@H]2O)c(=O)[nH]1` [UDP-Xyl], the “XylCer formation in lysates of HeLa, GCS KO and GCS-reexpressing cells, LC-MS/MS” value in assay [1] is given as “Expression of GCS in the GCS KO cells reinstalled their ability to produce XylCer”. For `CC(C)CCC[C@@H](C)[C@H]1CC[C@H]2[C@@H]3CC=C4C[C@@H](O)CC[C@]4(C)[C@H]3CC[C@]12C` [cholesterol], the “transxylosylation/transglucosylation acceptor, LC-MS/MS of products” value in assay [2] was “we used natural cholesterol as the acceptor and 4-MU-β-Xyl as the donor”. In the case of `O[C@H]1[C@H](O)[C@@H](O)[C@@H]2O[C@@H]2[C@@H]1O` [conduritol B-epoxide, L-1,2-anhydro-myo-inositol], on glucocerebrosidase (GBA), the “irreversible GBA inhibition in RAW264.7 cells (300 μM); xylosylated cholesterol” value is recorded as “formation was prohibited by prior inhibition of GBA with CBE”.

In the case of `Cc1cc(=O)oc2cc(O[C@@H]3OC[C@@H](O)[C@H](O)[C@H]3O)ccc12` [4-methylumbelliferyl β-D-xyloside], the “hydrolysis and transxylosylation in lysates of GBA3-overexpressing HEK293 cells” value on GBA3 is “GBA3, albeit less prominent than GBA, was found to be able to hydrolyze 4-MU-β-Xyl”. What is called IC50 is the concentration that inhibits the measured activity by half. For the compound `OC[C@@H]1[C@@H](O)[C@H](O)[C@@H](O)[C@@H]2O[C@H]12` [cyclophellitol], the IC50 in assay [3] stood at 61 nM.

The values are drawn from paper PMC7903134, “Human glucocerebrosidase mediates formation of xylosyl-cholesterol by β-xylosidase and transxylosidase reactions” (Journal of Lipid Research, 2021).
